Target: T1, SAE (Homo sapiens, UniProt Q9UBT2)
T1 construct: endogenous in cells; host or cells: HCT116
T1 sequence (Q9UBT2 1-640): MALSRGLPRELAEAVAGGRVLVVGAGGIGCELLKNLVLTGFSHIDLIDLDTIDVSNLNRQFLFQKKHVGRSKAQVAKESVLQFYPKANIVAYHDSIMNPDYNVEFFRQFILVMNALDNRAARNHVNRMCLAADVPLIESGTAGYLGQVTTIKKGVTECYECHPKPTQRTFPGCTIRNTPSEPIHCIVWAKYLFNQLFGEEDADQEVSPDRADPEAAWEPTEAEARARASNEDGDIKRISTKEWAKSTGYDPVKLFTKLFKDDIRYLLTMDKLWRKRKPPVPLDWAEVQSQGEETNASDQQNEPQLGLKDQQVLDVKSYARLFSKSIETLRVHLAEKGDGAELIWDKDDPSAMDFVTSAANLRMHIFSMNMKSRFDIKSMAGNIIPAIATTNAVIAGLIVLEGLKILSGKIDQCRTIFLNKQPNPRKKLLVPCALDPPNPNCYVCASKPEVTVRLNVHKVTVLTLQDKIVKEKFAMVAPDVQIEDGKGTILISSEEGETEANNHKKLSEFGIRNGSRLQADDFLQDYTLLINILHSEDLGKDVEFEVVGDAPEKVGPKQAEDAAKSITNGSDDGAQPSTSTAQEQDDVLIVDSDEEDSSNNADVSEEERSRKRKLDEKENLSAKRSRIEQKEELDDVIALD
T1 sequence (Q9UBE0 1-346): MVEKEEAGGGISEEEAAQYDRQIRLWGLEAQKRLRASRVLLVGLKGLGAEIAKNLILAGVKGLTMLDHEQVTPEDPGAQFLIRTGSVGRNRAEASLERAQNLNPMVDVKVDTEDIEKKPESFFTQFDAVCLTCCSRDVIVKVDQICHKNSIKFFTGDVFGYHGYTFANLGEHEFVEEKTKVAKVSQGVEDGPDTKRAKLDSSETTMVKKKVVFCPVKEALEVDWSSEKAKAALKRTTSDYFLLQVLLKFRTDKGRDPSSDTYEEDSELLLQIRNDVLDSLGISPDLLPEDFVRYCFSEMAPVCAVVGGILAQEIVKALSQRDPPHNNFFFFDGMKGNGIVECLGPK
Assay: SUMO IF: in vitro inhibitory activity assay against SAE in HCT116 cells (SUMO-2/3 immunofluorescence)
Type: cell-based
Details: class symbols, 6 h at 37° C.
Procedure, shortened: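 HCT116 cells were treated with compound for 6 h at 37 °C, then PFA-fixed, Triton-permeabilised and BSA-blocked. They were stained overnight at 4 °C with anti-SUMO-2/3 (18H8) rabbit mAb (1:400), then with FITC anti-rabbit IgG (1:300). Fluorescence versus DMSO gave inhibition rate and IC50.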

Structure (SMILES)	IC50
NS(=O)(=O)OC[C@H]1[C@H](F)[C@@H](Nc2ncncc2C(=O)c2cc3c(s2)CCCC32NCCc3ccc(F)cc32)C[C@@H]1O (stereo partly drawn) [Compound 91]	50 to 200 nM
NS(=O)(=O)OC[C@H]1[C@H](F)[C@@H](Nc2ncncc2C(=O)c2cc3c(s2)COC[C@@]32NCCc3ccccc32)C[C@@H]1O [Compound 98]	> 200 nM
NS(=O)(=O)OC[C@H]1[C@H](F)[C@@H](Nc2ncncc2C(=O)c2cc3c(s2)CCCC32NCCc3ccc(Cl)nc32)C[C@@H]1O (stereo partly drawn) [Compound 600]	≤ 50 nM
NS(=O)(=O)OC[C@H]1[C@H](F)[C@@H](Nc2ncncc2C(=O)c2cc3c(s2)CC[C@]32OCCc3ccccc32)C[C@@H]1O [Compound 746]	50 to 200 nM
NS(=O)(=O)OC[C@H]1[C@H](F)[C@@H](Nc2ncncc2C(=O)c2cc3c(s2)CSC[C@]32NCCc3ccccc32)C[C@@H]1O [Compound 296]	50 to 200 nM
CC1Cc2ccc(Cl)cc2[C@]2(CCCc3sc(C(=O)c4cncnc4N[C@H]4C[C@H](O)[C@@H](COS(N)(=O)=O)[C@@H]4F)cc32)N1 (stereo partly drawn) [Compound 1024]	> 200 nM
N#Cc1ccc2c(c1)C1(CCCc3sc(C(=O)c4cncnc4N[C@H]4C[C@H](O)[C@@H](COS(N)(=O)=O)[C@@H]4F)cc31)OCC2 (stereo partly drawn) [Compound 714]	50 to 200 nM
N#Cc1ccc2c(c1)[C@]1(CCCc3sc(C(=O)c4cncnc4N[C@H]4C[C@H](O)[C@@H](COS(N)(=O)=O)[C@@H]4F)cc31)NCC2 [Compound 95]	> 200 nM
NS(=O)(=O)OC[C@H]1[C@H](F)[C@@H](Nc2ncncc2C(=O)c2nc3c(s2)CCCC32NCCc3ccc(Cl)cc32)C[C@@H]1O (stereo partly drawn) [Compound 585]	> 200 nM
NS(=O)(=O)OC[C@H]1[C@H](F)[C@@H](Nc2ncncc2C(=O)c2cc3c(s2)CCCC32NC(=O)Cc3ccc(Cl)cc32)C[C@@H]1O (stereo partly drawn) [Compound 627]	> 200 nM
CC1(C)Cc2ccc(Cl)cc2[C@]2(CCCc3sc(C(=O)c4cncnc4N[C@H]4C[C@H](O)[C@@H](COS(N)(=O)=O)[C@@H]4F)cc32)N1 [Compound 1030]	> 200 nM
NS(=O)(=O)OC[C@H]1[C@H](F)[C@@H](Nc2ncncc2C(=O)c2cc3c(s2)CCC[C@]32NCCc3ccc(Cl)nc32)C[C@@H]1O [Compound 602]	≤ 50 nM
NS(=O)(=O)OC[C@H]1[C@H](F)[C@@H](Nc2ncncc2C(=O)c2cc3c(s2)CCC[C@]32NCCc3cc(Cl)ncc32)C[C@@H]1O [Compound 679]	50 to 200 nM
C#Cc1ccc2c(c1)[C@@]1(CCCc3sc(C(=O)c4cncnc4N[C@H]4C[C@H](O)[C@@H](COS(N)(=O)=O)[C@@H]4F)cc31)NCC2 [Compound 668]	50 to 200 nM
NS(=O)(=O)OC[C@H]1[C@H](F)[C@@H](Nc2ncncc2C(=O)c2nc3c(s2)COC[C@@]32NCCc3ccc(Cl)cc32)C[C@@H]1O [Compound 589]	> 200 nM
[2H]C1(c2cc(C(=O)c3cncnc3N[C@H]3C[C@H](O)[C@@H](COS(N)(=O)=O)[C@@H]3F)sc2C)NCCc2ccc(Cl)cc21 (stereo partly drawn) [Compound 269]	50 to 200 nM
CN1CCc2ccc(Cl)cc2[C@@]12CCCc1sc(C(=O)c3cncnc3N[C@H]3C[C@H](O)[C@@H](COS(N)(=O)=O)[C@@H]3F)cc12 [Compound 596]	50 to 200 nM
NS(=O)(=O)OC[C@H]1[C@H](F)[C@@H](Nc2ncncc2C(=O)c2cc3c(s2)C=C[C@]32OCCc3ccccc32)C[C@@H]1O [Compound 755]	50 to 200 nM
NS(=O)(=O)OC[C@H]1[C@H](F)[C@@H](Nc2ncncc2C(=O)c2cc3c(s2)CC[C@@]32OCCc3ccc(Cl)cc32)C[C@@H]1O [Compound 706]	> 200 nM
NS(=O)(=O)OC[C@H]1[C@H](F)[C@@H](Nc2ncncc2C(=O)c2cc3c(s2)COCC32NCCc3ccccc32)C[C@@H]1O (stereo partly drawn) [Compound 97]	> 200 nM

Structure (SMILES)	IC50
NS(=O)(=O)OC[C@H]1[C@H](F)[C@@H](Nc2ncncc2C(=O)c2cc3c(s2)COC[C@@]32NCCc3c(Cl)cc(Cl)cc32)C[C@@H]1O [Compound 565]	> 200 nM
NS(=O)(=O)OC[C@H]1[C@H](F)[C@@H](Nc2ncncc2C(=O)c2cc3c(s2)CCCC32OCCc3ccc(F)cc32)C[C@@H]1O (stereo partly drawn) [Compound 711]	50 to 200 nM
NS(=O)(=O)OC[C@H]1[C@H](F)[C@@H](Nc2ncncc2C(=O)c2cc3c(s2)C(F)(F)C[C@]32NCCc3ccc(F)cc32)C[C@@H]1O [Compound 626]	50 to 200 nM
Cc1ccc2c(c1)[C@@]1(CCc3sc(C(=O)c4cncnc4N[C@H]4C[C@H](O)[C@@H](COS(N)(=O)=O)[C@@H]4F)cc31)NCC2 [Compound 687]	50 to 200 nM
NS(=O)(=O)OC[C@H]1[C@H](F)[C@@H](Nc2ncncc2C(=O)c2cc3c(s2)CN(C2CC2)C[C@@]32OCCc3ccc(Cl)cc32)C[C@@H]1O [Compound 742]	> 200 nM
CN1Cc2sc(C(=O)c3cncnc3N[C@H]3C[C@H](O)[C@@H](COS(N)(=O)=O)[C@@H]3F)cc2C2(C1)OCCc1ccc(Cl)cc12 (stereo partly drawn) [Compound 723]	≤ 50 nM
NS(=O)(=O)OC[C@H]1[C@H](F)[C@@H](Nc2ncncc2C(=O)c2cc3c(s2)CCCC32OCCc3ccccc32)C[C@@H]1O (stereo partly drawn) [Compound 708]	> 200 nM
NS(=O)(=O)OC[C@H]1[C@H](F)[C@@H](Nc2ncncc2C(=O)c2cc([C@H]3NCCc4ccc(Cl)cc43)c(C3CC3)s2)C[C@@H]1O [Compound 986]	> 200 nM
NS(=O)(=O)OC[C@H]1[C@H](F)[C@@H](Nc2ncncc2C(=O)c2cc3c(s2)COC[C@@]32NCCc3ccc(Cl)c(Cl)c32)C[C@@H]1O [Compound 559]	> 200 nM
NS(=O)(=O)OC[C@H]1[C@H](F)[C@@H](Nc2ncncc2C(=O)c2cc3c(s2)CSCC32NCCc3cnc(Cl)cc32)C[C@@H]1O (stereo partly drawn) [Compound 606]	50 to 200 nM
NS(=O)(=O)OC[C@H]1[C@H](F)[C@@H](Nc2ncncc2C(=O)c2cc3c(s2)COC32NCCc3ccc(Cl)cc32)C[C@@H]1O (stereo partly drawn) [Compound 164]	50 to 200 nM
NS(=O)(=O)OC[C@H]1[C@H](F)[C@@H](Nc2ncncc2C(=O)c2cc([C@@H]3NCCc4ccc(Cl)cc43)c(C3CC3)s2)C[C@@H]1O [Compound 985]	50 to 200 nM
NS(=O)(=O)OC[C@H]1[C@H](F)[C@@H](Nc2ncncc2C(=O)c2cc3c(s2)CCC[C@@]32OCCc3ccccc32)C[C@@H]1O [Compound 709]	> 200 nM
NS(=O)(=O)OC[C@H]1[C@H](F)[C@@H](Nc2ncncc2C(=O)c2cc3c(s2)CCC[C@@]32NCC3(CC3)c3ccc(Cl)cc32)C[C@@H]1O [Compound 616]	> 200 nM
Cc1sc(C(=O)c2cncnc2N[C@H]2C[C@H](O)[C@@H](COS(N)(=O)=O)[C@@H]2F)cc1C1NCCc2ccc(C#N)cc21 (stereo partly drawn) [Compound 238]	> 200 nM
CC1CNC2(CCCc3sc(C(=O)c4cncnc4N[C@H]4C[C@H](O)[C@@H](COS(N)(=O)=O)[C@@H]4F)cc32)c2cc(Cl)ccc21 (stereo partly drawn) [Compound 1020]	50 to 200 nM
NS(=O)(=O)OC[C@H]1[C@H](F)[C@@H](Nc2ncncc2C(=O)c2cc3c(s2)COC[C@]32NCCc3c(Cl)cc(Cl)cc32)C[C@@H]1O [Compound 566]	50 to 200 nM
NS(=O)(=O)OC[C@H]1[C@H](F)[C@@H](Nc2ncncc2C(=O)c2cc3c(s2)CCC[C@]32NCCc3ccccc32)C[C@@H]1O [Compound 87]	≤ 50 nM
N#Cc1ccc2c(c1)C1(CCCc3sc(C(=O)c4cncnc4N[C@H]4C[C@H](O)[C@@H](COS(N)(=O)=O)[C@@H]4F)cc31)NCC2 (stereo partly drawn) [Compound 94]	50 to 200 nM
CC1Cc2ccc(Cl)cc2[C@]2(C=Cc3sc(C(=O)c4cncnc4N[C@H]4C[C@H](O)[C@@H](COS(N)(=O)=O)[C@@H]4F)cc32)N1 (stereo partly drawn) [Compound 1057]	> 200 nM

Same assay, conditions: numeric values, 6 h at 37° C.

Structure (SMILES)	IC50
Cc1sc(C(=O)c2cncnc2N[C@H]2C[C@H](O)[C@@H](COS(N)(=O)=O)[C@@H]2F)cc1[C@@H]1NCCc2ccc(F)cc21 [Compound 236]	73.1 nM
NS(=O)(=O)OC[C@H]1[C@H](F)[C@@H](Nc2ncncc2C(=O)c2cc3c(s2)CN(CC(F)(F)F)C[C@]32NCCc3ccc(Cl)cc32)C[C@@H]1O [Compound 653]	25.9 nM
CCN1Cc2sc(C(=O)c3cncnc3N[C@H]3C[C@H](O)[C@@H](COS(N)(=O)=O)[C@@H]3F)cc2[C@@]2(C1)NCCc1ccc(Cl)cc12 [Compound 646]	> 1000 nM
NS(=O)(=O)OC[C@H]1[C@H](F)[C@@H](Nc2ncncc2C(=O)c2cc3c(s2)C=C[C@@]32NCCc3ccc(Cl)cc32)C[C@@H]1O [Compound 343]	> 1000 nM
NS(=O)(=O)OC[C@H]1[C@H](F)[C@@H](Nc2ncncc2C(=O)c2cc3c(s2)CN(C2CC2)C[C@]32NCCc3ccc(Cl)cc32)C[C@@H]1O [Compound 581]	23.8 nM

From patent US20260297109A1, “COMPOUNDS AS SUMO ACTIVATING ENZYME INHIBITORS” (WIGEN BIOMEDICINE TECHNOLOGY (SHANGHAI) CO., LTD., priority 2022, published 2026)
